Results published in BindingDB's records for doi:10.1021/bi900236k (University of Thessaly, 2009).

Target: T1, Poly(A)-specific ribonuclease PARN (Homo sapiens, UniProt O95453)
T1 sequence (O95453 whole entry): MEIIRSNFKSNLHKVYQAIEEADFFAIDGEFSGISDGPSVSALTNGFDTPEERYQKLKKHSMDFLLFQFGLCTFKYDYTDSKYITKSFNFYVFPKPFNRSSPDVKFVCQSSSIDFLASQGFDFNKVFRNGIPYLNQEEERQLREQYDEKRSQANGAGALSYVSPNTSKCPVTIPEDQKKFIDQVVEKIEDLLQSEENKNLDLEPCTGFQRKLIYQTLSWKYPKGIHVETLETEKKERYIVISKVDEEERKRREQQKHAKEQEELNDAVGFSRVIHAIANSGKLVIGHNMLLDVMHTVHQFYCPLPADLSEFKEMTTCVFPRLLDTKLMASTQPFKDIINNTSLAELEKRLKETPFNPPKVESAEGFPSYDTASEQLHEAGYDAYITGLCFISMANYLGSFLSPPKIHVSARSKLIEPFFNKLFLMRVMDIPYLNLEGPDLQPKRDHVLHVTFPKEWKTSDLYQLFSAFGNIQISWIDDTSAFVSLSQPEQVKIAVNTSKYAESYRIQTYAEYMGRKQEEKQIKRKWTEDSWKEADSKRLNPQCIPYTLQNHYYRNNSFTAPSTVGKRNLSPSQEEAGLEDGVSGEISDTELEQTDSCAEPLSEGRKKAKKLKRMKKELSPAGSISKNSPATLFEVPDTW
Assay: PARN Activity Assay
Description: The enzymatic activity was determined by the methylene blue assay.

Row | Ki [µM] | SMILES
1 | 645 | Nc1ccn(C2OC(CO)C(O)C(F)C2O)c(=O)n1 (stereo not drawn) [Nucleoside, C6]
2 | 510 | O=C(Nc1ncnc2c1ncn2C1OC(O)C(O)C(F)C1O)c1ccccc1 (stereo not drawn) [Nucleoside, A2]
3 | 210 | O=C(Nc1ccn(C2OC(CO)C(O)C(F)C2O)c(=O)n1)c1ccccc1 (stereo not drawn) [Nucleoside, A6]
